The target of the assay is T1, human full-length recombinant PKC βII (Homo sapiens, UniProt P05771).
T1 construct: Active human full-length recombinant PKC βII; purchased Invitrogen GmbH, Darmstadt, Germany
The assay is described as follows: Determination of PKC βII inhibition (Caliper mobility-shift kinase assay, Fluorescein-RFARKGSLRQKNV peptide substrate). It counts as biochemical. Conditions: example compounds at a final concentration of 1.14 μM (±0.15 μM). As for the experimental part:
Determination of PKC βII Inhibition
PKC βII Inhibition was Determined According to the Following Protocol:
Active human full-length recombinant PKC βII and the peptide substrate, Fluorescein-RFARKGSLRQKNV, were purchased from Invitrogen GmbH, Darmstadt, Germany. Adenosine-5′-triphosphate (ATP), bovine serum albumine (BSA), dimethylsulphoxide (DMSO), 4-(2-hydroxyethyl)piperazine-1-ethanesulfonic acid (Hepes), Triton X-100, 1,2-Dioleoyl-sn-glycerol (DAG), L-G-Phosphatidyl-L-serine (PS), calcium chloride (CaCl2), and Pluronic F-68 were purchased from Sigma-Aldrich, Munich, Germany. Magnesium chloride, 1 M sodium hydroxide solution, 1M hydrochloric acid solution and EDTA were obtained from Merck Biosciences, Darmstadt, Germany.
Test compounds were diluted to three times the test concentration in buffer 1 (30 mM Hepes-NaOH, pH 7.4, 0.01% Pluronic F-68 and 3% (v/v) DMSO). The PKC enzyme was diluted to a concentration of 30 ng/ml in buffer 2 (30 mM Hepes-NaOH, pH 7.4, 15 mM MgCl2, 150 μM CaCl2, 150 μg/ml PS, 60 μg/ml DAG, and 0.045% (w/v) Triton X-100). The peptide substrate and ATP were diluted to concentrations of 3 μM and 120 μM, respectively, in buffer 2. Two μl of the compound solution were mixed with 2 μl of the diluted enzyme in a 384-well small volume microtiter plate (Greiner, Bio-One, Frickenhausen, Germany), and the kinase reaction was initiated by addition of 2 μl of the solution containing peptide substrate and ATP. After 60 min incubation at 32° C., the reaction was stopped by addition of 20 μl of a solution containing 130 mM Hepes-NaOH, pH 7.4. 0.0195% (v/v) Brij-35, 6.5 mM EDTA. 0.13% chip coating reagent 3 (Caliper Lifescience Inc, Hopkinton, Mass.) and 6.5% (v/v) DMSO. Phosphorylation of the substrate peptide was then detected on a Caliper 3000 instrument essentially as described by Pommereau et al (J. Biomol. Screening 2004, 9(5), 409-416). Separation conditions were as follows: Pressure −0.8 psi, upstream voltage −3000 V, downstream voltage −800 V. Positive controls (buffer 1 instead of compound) and negative controls (buffer 1 instead of compound and buffer 2 instead of kinase solution) were run in parallel on each plate. Fractional turnover (R) was determined as the height of the peak of the phosphorylated peptide product divided by the sum of the unphosphorylated substrate and phosphorylated product peak heights. Percent-inhibition values for the test compounds were determined using the formula % Inhibition=100*(1−(Rcompound−Rnegative control)/(Rpositive control−Rnegative control).
In the following table % inhibition values observed with example compounds at a final concentration of 1.14 μM (±0.15 μM) are listed: […]

T1 sequence (P05771 1-673 isoform P05771-2): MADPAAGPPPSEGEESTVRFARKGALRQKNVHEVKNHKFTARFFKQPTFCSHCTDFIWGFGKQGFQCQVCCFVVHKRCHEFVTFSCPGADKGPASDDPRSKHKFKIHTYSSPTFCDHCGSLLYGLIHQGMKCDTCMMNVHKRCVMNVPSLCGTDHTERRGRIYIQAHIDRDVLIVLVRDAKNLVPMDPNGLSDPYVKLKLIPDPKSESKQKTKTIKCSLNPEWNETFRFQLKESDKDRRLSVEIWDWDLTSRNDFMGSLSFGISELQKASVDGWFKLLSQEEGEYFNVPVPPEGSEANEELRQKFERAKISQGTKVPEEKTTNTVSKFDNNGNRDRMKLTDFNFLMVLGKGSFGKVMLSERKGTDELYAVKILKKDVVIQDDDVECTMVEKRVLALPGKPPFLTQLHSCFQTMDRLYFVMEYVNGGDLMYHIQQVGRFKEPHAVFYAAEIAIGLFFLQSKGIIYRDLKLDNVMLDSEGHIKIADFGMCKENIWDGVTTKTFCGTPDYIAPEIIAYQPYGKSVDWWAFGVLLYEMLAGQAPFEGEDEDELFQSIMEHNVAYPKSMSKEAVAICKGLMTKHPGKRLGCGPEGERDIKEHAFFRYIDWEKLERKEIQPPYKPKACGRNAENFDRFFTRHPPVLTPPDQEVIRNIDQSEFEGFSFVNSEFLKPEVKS

For the molecule `CO[C@H]1CNC[C@@H]1NC(=O)c1cc(-c2ccc(O)cc2)nc2[nH]nc(C)c12` (racemic) [Example 78, 6-(4-Hydroxy-phenyl)-3-methyl-1H-pyrazolo[3,4-b]pyridine-4-carboxylic acid ((trans)-4-methoxy-pyrrolidin-3-yl)-amide], the inhibition at 1.14 µM was 99%. For the molecule `Cc1n[nH]c2nc(-c3ccc(O)cc3)cc(C(=O)NC3CCCC[C@@H]3N)c12` (mixture of isomers) [Example 123, 6-(4-Hydroxy-phenyl)-3-methyl-1H-pyrazolo[3,4-b]pyridine-4-carboxylic acid (trans-2-amino-cyclohexyl)-amide], the inhibition at 1.14 µM was found to be 75%.

Take `CN[C@H]1CN(C(=O)c2cc(-c3ccc(O)cc3)nc3[nH]nc(C)c23)CC[C@H]1C` (racemic) [Example 229, [6-(4-Hydroxy-phenyl)-3-methyl-1H-pyrazolo[3,4-b]pyridin-4-yl]-(cis-4-methyl-3-methylamino-piperidin-1-yl)-methanone]: the inhibition at 1.14 µM was 79%.

For `Cc1n[nH]c2nc(-c3ccc(O)cc3)cc(C(=O)N[C@H]3C[C@@H]3N)c12` (racemic) [Example 251, 6-(4-Hydroxy-phenyl)-3-methyl-1H-pyrazolo[3,4-b]pyridine-4-carboxylic acid (trans-2-amino-cyclopropyl)-amide], the inhibition at 1.14 µM worked out at 53%. Next, `Cc1n[nH]c2nc(-c3ccc(O)c(F)c3)cc(C(=O)N[C@H]3C[C@@H]3N)c12` (racemic) [Example 307, 6-(3-Fluoro-4-hydroxy-phenyl)-3-methyl-1H-pyrazolo[3,4-b]pyridine-4-carboxylic acid (trans-2-amino-cyclopropyl)-amide]: 59%. Next, `CN[C@H]1CN(C(=O)c2cc(-c3ccc(O)c(F)c3)nc3[nH]nc(C)c23)CC[C@H]1C` (racemic) [Example 312, [6-(3-Fluoro-4-hydroxy-phenyl)-3-methyl-1H-pyrazolo[3,4-b]pyridin-4-yl]-(cis-4-methyl-3-methylamino-piperidin-1-yl)-methanone]: 54%.

Regarding `Cc1n[nH]c2nc(-c3ccc(O)cc3F)cc(C(=O)N3CCN[C@@H](C)[C@H]3C)c12` (racemic) [Example 442, ((cis)-2,3-Dimethyl-piperazin-1-yl)-[6-(2-fluoro-4-hydroxy-phenyl)-3-methyl-1H-pyrazolo[3,4-b]pyridin-4-yl]-methanone], the inhibition at 1.14 µM came out at 97%. Next, `Cc1n[nH]c2nc(-c3ccc(O)cc3)cc(C(=O)N3C[C@H](C)NC[C@H]3C)c12` (relative stereo) [Example 73, (trans-2,5-Dimethyl-piperazin-1-yl)-[6-(4-hydroxy-phenyl)-3-methyl-1H-pyrazolo[3,4-b]pyridin-4-yl]-methanone]: 95%; `Cc1ccc([C@@H]2CNC[C@H]2NC(=O)c2cc(-c3ccc(O)cc3)nc3[nH]nc(C)c23)cc1` (relative stereo) [Example 119, 6-(4-Hydroxy-phenyl)-3-methyl-1H-pyrazolo[3,4-b]pyridine-4-carboxylic acid (trans-4-p-tolyl-pyrrolidin-3-yl)-amide]: 91%.

Regarding `Cc1n[nH]c2nc(-c3ccc(O)cc3)cc(C(=O)N[C@@H]3CCCC[C@@H]3N)c12` (relative stereo) [Example 126, 6-(4-Hydroxy-phenyl)-3-methyl-1H-pyrazolo[3,4-b]pyridine-4-carboxylic acid (cis-2-amino-cyclohexyl)-amide], the inhibition at 1.14 µM came to 48%. Under `Cc1n[nH]c2nc(-c3ccc(O)cc3F)cc(C(=O)N3C[C@@H](c4ccccc4)NC[C@@H]3C)c12` (relative stereo) [Example 447, [6-(2-Fluoro-4-hydroxy-phenyl)-3-methyl-1H-pyrazolo[3,4-b]pyridin-4-yl]-(trans-2-methyl-5-phenyl-piperazin-1-yl)-methanone] stands 83%.

In general, inhibition refers to the change of the read-out against control, counted positive when it falls.

These data come from US8686150B2 (Sanofi, priority 2011, dated 2014).
